From article PMC4425353 (Science (New York, N.Y.), 2015)

Key:
NHR-80 = molecular target: T1, NHR-80 (Caenorhabditis elegans, UniProt Q8ITW8); assay: intrinsic fluorescence quenching of GST-NHR-80 with increasing OEA; type: binding
T1 sequence (Q8ITW8 1-504): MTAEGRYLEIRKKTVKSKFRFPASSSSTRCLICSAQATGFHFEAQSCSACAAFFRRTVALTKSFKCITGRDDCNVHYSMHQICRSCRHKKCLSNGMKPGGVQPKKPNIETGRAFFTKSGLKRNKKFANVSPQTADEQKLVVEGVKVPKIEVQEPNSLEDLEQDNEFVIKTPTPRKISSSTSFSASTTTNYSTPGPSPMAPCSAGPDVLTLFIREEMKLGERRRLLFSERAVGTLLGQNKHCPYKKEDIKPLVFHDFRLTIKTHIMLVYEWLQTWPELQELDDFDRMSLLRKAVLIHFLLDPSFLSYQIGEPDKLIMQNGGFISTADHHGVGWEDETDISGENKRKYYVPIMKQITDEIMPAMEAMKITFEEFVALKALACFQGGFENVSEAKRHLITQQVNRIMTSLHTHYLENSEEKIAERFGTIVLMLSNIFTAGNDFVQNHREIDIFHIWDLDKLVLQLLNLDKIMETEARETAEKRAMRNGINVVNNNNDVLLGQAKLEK

LBP-8 = molecular target: T2, LBP-8 (Caenorhabditis elegans, UniProt O02324); assay: fluorescence displacement of […],8-ANS; type: binding
T2 sequence (O02324 1-137): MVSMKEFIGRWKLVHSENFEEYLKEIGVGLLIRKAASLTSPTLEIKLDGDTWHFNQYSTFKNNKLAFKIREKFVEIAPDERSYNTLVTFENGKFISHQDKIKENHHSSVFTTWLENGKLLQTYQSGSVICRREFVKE

Structure (SMILES): CCCCCCCC/C=C\CCCCCCCC(=O)NCCO [OEA, oleoylethanolamide]
- Kd (NHR-80): 7.84 µM

Structure (SMILES): CCCCC/C=C\C/C=C\C/C=C\C/C=C\CCCC(=O)O [AA, arachidonic acid]
- fluorescence displacement of 1,8-ANS (LBP-8): In fluorescence-based binding assays, all four lipids bound to LBP-8

Structure (SMILES): CC/C=C\C/C=C\C/C=C\C/C=C\CCCCCCC(=O)O [ω-3 AA, ω-3 arachidonic acid]
- fluorescence displacement of 1,8-ANS (LBP-8): In fluorescence-based binding assays, all four lipids bound to LBP-8

Structure (SMILES): CCCCC/C=C\C/C=C\C/C=C\CCCCCCC(=O)O [DGLA, dihomo-γ-linolenic acid]
- fluorescence displacement of 1,8-ANS (LBP-8): In fluorescence-based binding assays, all four lipids bound to LBP-8
